These are literature values, as cited in patent publication US8394592B2, “Methods for assessing cancer susceptibility to carcinogens in tobacco products” (The Board of Regents of the University of Texas System, priority 2006, dated 2013).

This data set deals with Swiss mice. The settings on record: micronucleus test in Swiss mice; cited from earlier work.

Regarding `CN(CCCC(=O)c1cccnc1)N=O` [NNK, 4-(methylnitrosamino)-1-(3-pyridyl)-1-butanone], the mutagenicity result is “potent mutagen”.
